Data as given in PubChem BioAssay (NCI).
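Briefly, cells in 96-well plates were exposed to five compound concentrations for 48 h, and endpoints were estimated by linear interpolation. The concentration for full growth arrest is given as TGI.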

Experiments:
Experiment in all cases: NCI-60 cell line screen, 48 h
CCRF-CEM leukemia = tested on: CCRF-CEM leukemia
A498 renal = tested on: A498 renal
M14 melanoma = tested on: M14 melanoma
SK-MEL-2 melanoma = tested on: SK-MEL-2 melanoma
MCF7 breast = tested on: MCF7 breast
NCI-H460 lung = tested on: NCI-H460 lung
HT29 colon = tested on: HT29 colon
HOP-92 NSCLC = tested on: HOP-92 NSCLC
K-562 leukemia = tested on: K-562 leukemia
EKVX NSCLC = tested on: EKVX NSCLC
OVCAR-8 ovarian = tested on: OVCAR-8 ovarian
HS 578T breast = tested on: HS 578T breast
MOLT-4 leukemia = tested on: MOLT-4 leukemia
RPMI-8226 leukemia = tested on: RPMI-8226 leukemia
MALME-3M melanoma = tested on: MALME-3M melanoma
SNB-19 CNS = tested on: SNB-19 CNS
NCI-H23 lung = tested on: NCI-H23 lung
MDA-MB-435 = tested on: MDA-MB-435
MDA-MB-231 breast = tested on: MDA-MB-231 breast
SF-268 CNS = tested on: SF-268 CNS
LOX IMVI melanoma = tested on: LOX IMVI melanoma
TK-10 renal = tested on: TK-10 renal
SR leukemia = tested on: SR leukemia
SF-295 CNS = tested on: SF-295 CNS
SW-620 colon = tested on: SW-620 colon
SN12C renal = tested on: SN12C renal
SNB-75 CNS = tested on: SNB-75 CNS
SK-MEL-5 melanoma = tested on: SK-MEL-5 melanoma
T-47D breast = tested on: T-47D breast
HCT-15 colon = tested on: HCT-15 colon
PC-3 prostate = tested on: PC-3 prostate
MDA-N = tested on: MDA-N
COLO 205 colon = tested on: COLO 205 colon
HL-60(TB) leukemia = tested on: HL-60(TB) leukemia
786-0 renal = tested on: 786-0 renal
UO-31 renal = tested on: UO-31 renal
DU-145 prostate = tested on: DU-145 prostate
ACHN renal = tested on: ACHN renal
NCI/ADR-RES ovarian = tested on: NCI/ADR-RES ovarian
KM12 colon = tested on: KM12 colon
HOP-62 NSCLC = tested on: HOP-62 NSCLC
UACC-257 melanoma = tested on: UACC-257 melanoma
OVCAR-5 ovarian = tested on: OVCAR-5 ovarian
HCC-2998 colon = tested on: HCC-2998 colon
SK-OV-3 ovarian = tested on: SK-OV-3 ovarian
SK-MEL-28 melanoma = tested on: SK-MEL-28 melanoma
CAKI-1 renal = tested on: CAKI-1 renal
U251 CNS = tested on: U251 CNS
NCI-H226 lung = tested on: NCI-H226 lung
UACC-62 melanoma = tested on: UACC-62 melanoma
NCI-H522 lung = tested on: NCI-H522 lung
IGROV1 ovarian = tested on: IGROV1 ovarian
RXF 393 renal = tested on: RXF 393 renal
A549 NSCLC = tested on: A549 NSCLC
HCT-116 colon = tested on: HCT-116 colon
OVCAR-4 ovarian = tested on: OVCAR-4 ovarian
BT-549 breast = tested on: BT-549 breast

Question: Which results are given for `Cc1nnc(N)nc1C/C=C/C(Sc1ccc(Cl)cc1)c1ccccc1` (configuration not stated)?
Answer: TGI (CCRF-CEM leukemia): 3.23 µM; TGI (A498 renal): 23.9 µM; TGI (M14 melanoma): 20.7 µM; TGI (SK-MEL-2 melanoma): 21 µM; TGI (MCF7 breast): > 34.7 µM; TGI (NCI-H460 lung): 17.3 µM; TGI (HT29 colon): 25.6 µM; TGI (HOP-92 NSCLC): 23.7 µM; TGI (K-562 leukemia): > 100 µM; TGI (EKVX NSCLC): 16.1 µM; TGI (OVCAR-8 ovarian): 34.8 µM; TGI (HS 578T breast): 24.6 µM; TGI (MOLT-4 leukemia): > 32 µM; TGI (RPMI-8226 leukemia): > 42.9 µM; TGI (MALME-3M melanoma): 14.6 µM; TGI (SNB-19 CNS): 22.7 µM; TGI (NCI-H23 lung): 22.2 µM; TGI (MDA-MB-435): 14.9 µM; TGI (MDA-MB-231 breast): > 33.1 µM; TGI (SF-268 CNS): 21.6 µM; TGI (LOX IMVI melanoma): 7.7 µM; TGI (TK-10 renal): 21.9 µM; TGI (SR leukemia): > 100 µM; TGI (SF-295 CNS): 10.9 µM; TGI (SW-620 colon): > 39.7 µM; TGI (SN12C renal): > 48.1 µM; TGI (SNB-75 CNS): 16.5 µM; TGI (SK-MEL-5 melanoma): > 100 µM; TGI (T-47D breast): > 48.8 µM; TGI (HCT-15 colon): 15.9 µM; TGI (PC-3 prostate): 14.6 µM; TGI (MDA-N): > 95.9 µM; TGI (COLO 205 colon): > 41.9 µM; TGI (HL-60(TB) leukemia): 6.13 µM; TGI (786-0 renal): 11.4 µM; TGI (UO-31 renal): 12.4 µM; TGI (DU-145 prostate): > 45.4 µM; TGI (ACHN renal): 18.2 µM; TGI (NCI/ADR-RES ovarian): > 34.2 µM; TGI (KM12 colon): 15.7 µM; TGI (HOP-62 NSCLC): 19.6 µM; TGI (UACC-257 melanoma): 17 µM; TGI (OVCAR-5 ovarian): 23 µM; TGI (HCC-2998 colon): 23.4 µM; TGI (SK-OV-3 ovarian): 24.4 µM; TGI (SK-MEL-28 melanoma): > 38.1 µM; TGI (CAKI-1 renal): > 39.5 µM; TGI (U251 CNS): 26.9 µM; TGI (NCI-H226 lung): 4.64 µM; TGI (UACC-62 melanoma): 10.1 µM; TGI (NCI-H522 lung): 3.69 µM; TGI (IGROV1 ovarian): 5.37 µM; TGI (RXF 393 renal): 16.2 µM; TGI (A549 NSCLC): > 64.7 µM; TGI (HCT-116 colon): > 27.8 µM; TGI (OVCAR-4 ovarian): 19.6 µM; TGI (BT-549 breast): 27.7 µM
